Test system: Jurkat T cells
Assay: mRNA sequencing of activated Jurkat T cells
Assay type: cell-based, human

C=CC[C@@H]1/C=C(\C)C[C@H](C)C[C@H](OC)[C@H]2O[C@@](O)(C(=O)C(=O)N3CCCC[C@H]3C(=O)O[C@H](/C(C)=C/[C@@H]3CC[C@@H](O)[C@H](OC)C3)[C@H](C)[C@@H](O)CC1=O)[C@H](C)C[C@@H]2OC [FK506, Tacrolimus, reference compound]
GPR108 FPKM (P+I): 31.682 FPKM
GPR183 FPKM (P+I): 5.776 FPKM
GRAP2 FPKM (P+I): 19.094 FPKM
GRK5 FPKM (P+I): 8.481 FPKM
GZMH FPKM (P+I): 7.694 FPKM
HAPLN3 FPKM (P+I): 48.4 FPKM
HDC FPKM (P+I): 26.3 FPKM
HHIP FPKM (P+I): 9.345 FPKM
HHIP-AS1 FPKM (P+I): 32.468 FPKM
HIVEP2 FPKM (P+I): 7.494 FPKM
HSP90B1 FPKM (P+I): 877.39 FPKM
HSP90B2P FPKM (P+I): 8.45 FPKM
HSPA5 FPKM (P+I): 373.499 FPKM
ICAM1 FPKM (P+I): 12.704 FPKM
ID2 FPKM (P+I): 13.425 FPKM
IER2 FPKM (P+I): 181.539 FPKM
IER3 FPKM (P+I): 31.73 FPKM
IFFO2 FPKM (P+I): 2.752 FPKM
IFIH1 FPKM (P+I): 11.544 FPKM
IFNG FPKM (P+I): 3.8 FPKM
IGLL1 FPKM (P+I): 3.429 FPKM
IGSF9B FPKM (P+I): 7.175 FPKM
IL2RA FPKM (P+I): 5.833 FPKM
IL3 FPKM (P+I): 0.062 FPKM
IL4I1 FPKM (P+I): 7.078 FPKM
IL16 FPKM (P+I): 10.552 FPKM
IL22 FPKM (P+I): 3.116 FPKM
IL23A FPKM (P+I): 12.207 FPKM
IMPA2 FPKM (P+I): 3.015 FPKM
IRF8 FPKM (P+I): 1.19 FPKM
IRF9 FPKM (P+I): 39.109 FPKM
ISM1 FPKM (P+I): 0.726 FPKM
JAK3 FPKM (P+I): 8.03 FPKM
JUN FPKM (P+I): 3.835 FPKM
JUNB FPKM (P+I): 55.036 FPKM
KBTBD11 FPKM (P+I): 2.434 FPKM
KCNK5 FPKM (P+I): 3.906 FPKM
KCTD11 FPKM (P+I): 3.399 FPKM
KIAA0922 FPKM (P+I): 12.92 FPKM
KIF1B FPKM (P+I): 11.727 FPKM
KIF3B FPKM (P+I): 13.87 FPKM
KLF2 FPKM (P+I): 1.971 FPKM
KSR1 FPKM (P+I): 4.79 FPKM
LAIR2 FPKM (P+I): 2.203 FPKM
LAMP3 FPKM (P+I): 6.412 FPKM
LAX1 FPKM (P+I): 8.052 FPKM
LDLRAP1 FPKM (P+I): 0.778 FPKM
LIME1 FPKM (P+I): 15.749 FPKM
LINC00152 FPKM (P+I): 32.822 FPKM
LINC00426 FPKM (P+I): 1.041 FPKM
LINC00528 FPKM (P+I): 5.759 FPKM
LINC00539 FPKM (P+I): 5.004 FPKM
LINC00977 FPKM (P+I): 0.741 FPKM
LOC729603 FPKM (P+I): 2.179 FPKM
LRRC8B FPKM (P+I): 3.555 FPKM
LRRC45 FPKM (P+I): 4.142 FPKM
LYPD3 FPKM (P+I): 2.727 FPKM
MAP2K3 FPKM (P+I): 41.815 FPKM
MAP2K6 FPKM (P+I): 1.149 FPKM
MBOAT2 FPKM (P+I): 3.773 FPKM
MCM4 FPKM (P+I): 26.368 FPKM
MCM5 FPKM (P+I): 37.057 FPKM
METRNL FPKM (P+I): 7.501 FPKM
MIR221 FPKM (P+I): 10.429 FPKM
MIR4435-1HG FPKM (P+I): 17.138 FPKM
MIR6891 FPKM (P+I): 24.428 FPKM
MMP10 FPKM (P+I): 11.973 FPKM
MRPL39 FPKM (P+I): 132.452 FPKM
MYO1D FPKM (P+I): 4.59 FPKM
MYO1G FPKM (P+I): 98.59 FPKM
MYO7B FPKM (P+I): 15.796 FPKM
NAMPT FPKM (P+I): 34.628 FPKM
NDFIP1 FPKM (P+I): 22.485 FPKM
NDFIP2 FPKM (P+I): 13.13 FPKM
NDST3 FPKM (P+I): 10.369 FPKM
NEIL3 FPKM (P+I): 9.418 FPKM
NEXN FPKM (P+I): 3.661 FPKM
NFE2L3 FPKM (P+I): 15.944 FPKM
NFKBIA FPKM (P+I): 39.193 FPKM
NFKBID FPKM (P+I): 6.668 FPKM
NFKBIE FPKM (P+I): 11.399 FPKM
NINJ1 FPKM (P+I): 11.769 FPKM
NKD2 FPKM (P+I): 3.385 FPKM
NKX3-1 FPKM (P+I): 7.464 FPKM
NLRC5 FPKM (P+I): 38.784 FPKM
NPY FPKM (P+I): 4.771 FPKM
NR4A1 FPKM (P+I): 52.553 FPKM
NR4A2 FPKM (P+I): 0.04 FPKM
NRROS FPKM (P+I): 36.775 FPKM
NT5M FPKM (P+I): 1.582 FPKM
NXN FPKM (P+I): 2.574 FPKM
OAS3 FPKM (P+I): 13.085 FPKM
OSBPL3 FPKM (P+I): 24.517 FPKM
PARP9 FPKM (P+I): 84.306 FPKM
PARP14 FPKM (P+I): 65.432 FPKM
PCBP3 FPKM (P+I): 4.527 FPKM
PDE3B FPKM (P+I): 9.108 FPKM
PEAK1 FPKM (P+I): 5.442 FPKM
PELI1 FPKM (P+I): 8.175 FPKM
PHEX FPKM (P+I): 0.213 FPKM
PHF7 FPKM (P+I): 3.968 FPKM
PHLDA1 FPKM (P+I): 65.703 FPKM
PIDD1 FPKM (P+I): 5.28 FPKM
PIM3 FPKM (P+I): 42.827 FPKM
PKIA FPKM (P+I): 13.962 FPKM
PLAU FPKM (P+I): 45.171 FPKM
PLEKHO1 FPKM (P+I): 47.519 FPKM
PLK3 FPKM (P+I): 5.257 FPKM
PMAIP1 FPKM (P+I): 26.095 FPKM
PMEPA1 FPKM (P+I): 3.548 FPKM
PODXL FPKM (P+I): 1.86 FPKM
POU3F2 FPKM (P+I): 1.044 FPKM
PPFIBP1 FPKM (P+I): 12.205 FPKM
PPM1H FPKM (P+I): 4.492 FPKM
PRKCA FPKM (P+I): 14.104 FPKM
PTK2 FPKM (P+I): 13.215 FPKM
PTPN22 FPKM (P+I): 6.37 FPKM
PTPRE FPKM (P+I): 14.031 FPKM
PWWP2B FPKM (P+I): 2.769 FPKM
PXMP2 FPKM (P+I): 5.624 FPKM
RAG1 FPKM (P+I): 0.251 FPKM
RAG2 FPKM (P+I): 0.173 FPKM
RAP1GAP2 FPKM (P+I): 0.368 FPKM
RAP1GAP FPKM (P+I): 1.878 FPKM
RDH10 FPKM (P+I): 5.856 FPKM
REL FPKM (P+I): 4.749 FPKM
RELB FPKM (P+I): 29.337 FPKM
RGS3 FPKM (P+I): 2.142 FPKM
RGS16 FPKM (P+I): 1.172 FPKM
RMI1 FPKM (P+I): 8.984 FPKM
RORB FPKM (P+I): 3.782 FPKM
S1PR1 FPKM (P+I): 0.737 FPKM
SAMD1 FPKM (P+I): 15.561 FPKM
SECISBP2L FPKM (P+I): 13.57 FPKM
SELPLG FPKM (P+I): 5.062 FPKM
SEMA7A FPKM (P+I): 26.567 FPKM
SERPINB2 FPKM (P+I): 2.905 FPKM
SERPINE1 FPKM (P+I): 6.785 FPKM
SH2B3 FPKM (P+I): 13.899 FPKM
SH2D5 FPKM (P+I): 1.469 FPKM
SH3BGRL3 FPKM (P+I): 408.163 FPKM
SH3RF2 FPKM (P+I): 27.941 FPKM
SHC4 FPKM (P+I): 0.663 FPKM
SIT1 FPKM (P+I): 48.56 FPKM
SIX6 FPKM (P+I): 15.688 FPKM
SLC2A3 FPKM (P+I): 45.525 FPKM
SLC2A4RG FPKM (P+I): 2.367 FPKM
SLC7A5 FPKM (P+I): 207.842 FPKM
SLC25A45 FPKM (P+I): 3.26 FPKM
SLCO3A1 FPKM (P+I): 3.481 FPKM
SLIT1 FPKM (P+I): 2.6 FPKM
SMIM14 FPKM (P+I): 7.677 FPKM
SOCS1 FPKM (P+I): 9.708 FPKM
SOCS3 FPKM (P+I): 8.922 FPKM
SOSTDC1 FPKM (P+I): 8.472 FPKM
SPRY2 FPKM (P+I): 16.882 FPKM
SREBF1 FPKM (P+I): 14.076 FPKM
ST3GAL6-AS1 FPKM (P+I): 9.039 FPKM
ST8SIA4 FPKM (P+I): 11.077 FPKM
STARD4 FPKM (P+I): 20.118 FPKM
STAT1 FPKM (P+I): 611.139 FPKM
STAT5A FPKM (P+I): 3.347 FPKM
STX11 FPKM (P+I): 2.733 FPKM
SYTL1 FPKM (P+I): 15.004 FPKM
TBC1D10C FPKM (P+I): 23.871 FPKM
TBC1D20 FPKM (P+I): 17.7 FPKM
TBX21 FPKM (P+I): 24.784 FPKM
THY1 FPKM (P+I): 3.994 FPKM
TIMP2 FPKM (P+I): 1.948 FPKM
TM4SF1 FPKM (P+I): 0.439 FPKM
TM7SF3 FPKM (P+I): 29.483 FPKM
TMEM229B FPKM (P+I): 6.813 FPKM
TMTC4 FPKM (P+I): 2.677 FPKM
TNFRSF4 FPKM (P+I): 2.933 FPKM
TNFRSF12A FPKM (P+I): 8.559 FPKM
TNFRSF14 FPKM (P+I): 12.35 FPKM
TNFSF9 FPKM (P+I): 2.568 FPKM
TNRC6C FPKM (P+I): 4.711 FPKM
TNS3 FPKM (P+I): 0.678 FPKM
TRAF1 FPKM (P+I): 11.176 FPKM
TRAT1 FPKM (P+I): 7.968 FPKM
TRIM22 FPKM (P+I): 2.908 FPKM
TSHR FPKM (P+I): 1.535 FPKM
TSPAN2 FPKM (P+I): 2.414 FPKM
TSPAN7 FPKM (P+I): 44.718 FPKM
TTC28 FPKM (P+I): 2.798 FPKM
TUBB2A FPKM (P+I): 7.594 FPKM
TUBB3 FPKM (P+I): 9.713 FPKM
UHRF1BP1L FPKM (P+I): 7.474 FPKM
USP30-AS1 FPKM (P+I): 6.464 FPKM
VANGL1 FPKM (P+I): 9.553 FPKM
VASH2 FPKM (P+I): 5.761 FPKM
VGF FPKM (P+I): 59.749 FPKM
XAF1 FPKM (P+I): 15.924 FPKM
XBP1 FPKM (P+I): 43.828 FPKM
XYLB FPKM (P+I): 1.506 FPKM
YBX2 FPKM (P+I): 1.555 FPKM
ZC3H12A FPKM (P+I): 13.36 FPKM
CD27 and CD70 expression (upon T-cell activation): inhibited CD27 and CD70
RNA levels of representative T-cell activation markers (IL2, IL3, NFATC1, CCL4, CCL20, CXCL8) (upon T-cell activation): reduced RNA levels of representative T-cell activation markers
